Measured values from patent US11371020B2, “Uses of epithelial-to-mesenchymal inhibitors in generating pacemaker cells” (Emory University, priority 2016, dated 2022).
“Also recorded” adds a separate entry of the source.

Assays:
[1] = system: TBX18-induced pacemaker cells (TBX18-iPCs); experiment: Beating, field potential and Ca2+ transient recording of TBX18-iPCs; assay type: cell-based, rat
Description: (§1) Experiments were performed to test whether i) TBX18-induced pacemaker cells (TBX18-iPCs) migrate, and ii) inhibition of EMT in TBX18-iPCs may stop the migration, thereby enhancing its pacing function. (See FIGS. 1-8). TBX18-iPCs were created by transducing freshly-isolated neonatal rat ventricular myocytes (NRVM) with an adenoviral vector expressing human TBX18. TBX18-iPC were cultured with an inhibitor of EMT, A83-01. […] TBX18-iPCs beat in synchrony upon EMT inhibition, and their automaticity persists over long-term.

EMT genes = experiment: EMT-related gene expression in TBX18-induced pacemaker cells; assay type: cell-based, rat; conditions: TBX18-iPCs cultured with A83-01
Description: as §1

TBX18-iPCs = experiment: Cx43 localisation, gap junctional coupling and Hcn4 expression in TBX18-iPCs; assay type: cell-based, rat
Description: as §1
TBX18 mediates both automaticity and EMT in iPCs.

ALK-5 = target: T1, ALK-5 (Homo sapiens, UniProt P36897); conditions: cited from earlier work
T1 sequence (P36897 34-503): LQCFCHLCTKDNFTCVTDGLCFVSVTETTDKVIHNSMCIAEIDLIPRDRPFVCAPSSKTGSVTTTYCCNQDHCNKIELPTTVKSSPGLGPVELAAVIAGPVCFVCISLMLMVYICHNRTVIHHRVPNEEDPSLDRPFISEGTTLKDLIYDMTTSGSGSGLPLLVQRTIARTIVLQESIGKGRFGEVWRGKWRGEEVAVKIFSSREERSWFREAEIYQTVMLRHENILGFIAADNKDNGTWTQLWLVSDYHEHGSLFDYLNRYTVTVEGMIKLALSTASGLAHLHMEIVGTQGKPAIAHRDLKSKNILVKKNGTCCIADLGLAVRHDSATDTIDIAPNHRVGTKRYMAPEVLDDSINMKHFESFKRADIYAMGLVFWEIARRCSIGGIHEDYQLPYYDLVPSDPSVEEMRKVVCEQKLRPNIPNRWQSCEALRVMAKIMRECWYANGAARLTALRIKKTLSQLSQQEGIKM

[2] = system: TBX18-induced pacemaker cells (TBX18-iPCs); experiment: Electrode-to-electrode impedance measurement of migration of TBX18-iPCs; assay type: cell-based, rat; conditions: A83-01 0.5 microM; NRVM transduced with adenoviral human TBX18
Description: TBX18-iPCs were created by transducing freshly isolated neonatal rat ventricular myocytes (NRVM) with an adenoviral vector expressing human TBX18. TBX18-iPC were cultured with an inhibitor of EMT, A83-01 (0.5 microM).
as §1

## Cc1cccc(-c2nn(C(=S)Nc3ccccc3)cc2-c2ccnc3ccccc23)n1 [A83-01, 3-(6-methyl-2-pyridinyl)-N-phenyl-4-(4-quinolinyl)-1H-pyrazole-1-carbothioamide]
[1]; in A83-01 versus without it
  persistence of automaticity of iPMs: persists much longer
[1]; in the presence of A83-01
  synchrony of pacing: synchronous and rhythmic pacing; also recorded: pace in unity
[1]; upon EMT inhibition
  beating rate of TBX18-iPCs: beating rate increases
  contraction and relaxation speed of TBX18-iPCs: contract and relax faster
EMT genes
  EMT gene expression in the iPCs: down-regulates EMT genes
TBX18-iPCs
  gap junctional coupling of EMT-inhibited TBX18-iPCs: long-term gap junctional coupling
TBX18-iPCs; upon EMT inhibition
  Hcn4 expression in TBX18-iPCs: enhances Hcn4 expression
  localisation of nuclear-bound Cx43 proteins in TBX18-iPCs: translocated to the sarcolemma
ALK-5
  Smad signaling and epithelial-to-mesenchymal transition by transforming growth factor-beta: inhibits
[2]
  migration of TBX18-iPCs: remain stationary; also recorded: migratory behavior is deleted
